The values that follow come from ChEMBL document CHEMBL4052706, “Isolation, structure elucidation, and synthesis of antiplasmodial quinolones from Crinum firmifolium” (Bioorg Med Chem, 2017).

Test [1] relates to Plasmodium falciparum. The test can be described thus: Antiplasmodial activity against chloroquine/mefloquine-resistant Plasmodium falciparum Dd2 incubated for 72 hrs by SYBR green 1 dye based fluorescence assay. Type of test: functional. Particulars: Dd2, 72 h.
Test [2] concerns A2780. The test can be described thus: Antiproliferative activity against human A2780 cells after 2 days by Alamar blue assay. The class given is cell-based. To be noted: A2780, 48 h. In general terms: Resazurin is reduced to fluorescent resorufin, in cell work by metabolically active cells.
A short description of test [3]: Selectivity ratio of IC50 for human A2780 cells to IC50 for chloroquine/mefloquine-resistant Plasmodium falciparum Dd2.
Test [4] deals with Plasmodium falciparum. The test can be described thus: Antiplasmodial activity against chloroquine-sensitive Plasmodium falciparum 3D7 incubated for 72 hrs by SYBR green 1 dye based fluorescence assay. The class given is functional. Particulars: 3D7, 72 h.

The IC50 is the midpoint of a concentration-inhibition curve. The low end stands for inhibition by little substance, the high end for a need for much substance.

With `CCCCCCCCc1cc(=O)c2ccccc2[nH]1`, the IC50 in test [1] amounted to 3650 nM; in test [2], 12000 nM. The “Ratio IC50” value in test [3] came out at 3.4.
Take `CCCC(C)CCCc1cc(=O)c2ccccc2[nH]1` (centres undefined): the IC50 in test [1] stood at 330 nM; in test [4], 385 nM; in test [2] it was 29000 nM. In test [3], the “Ratio IC50” value is 89.
`COc1cc2c(cc1O)c(=O)n1ccc3cccc2c31`: the results for the IC50 in test [1] and in test [2] were more than 38000 nM and more than 75000 nM, respectively.
Regarding `CC(C)CCCCCc1cc(=O)c2ccccc2[nH]1`, the IC50 was 583 nM in test [1], 501 nM in test [4] and 34000 nM in test [2]. Besides, the “Ratio IC50” value in test [3] amounted to 57.7.
Take `CCC(C)CCCCc1cc(=O)c2ccccc2[nH]1` (centres undefined): the IC50 turned out to be 750 nM in test [1], 921 nM in test [4] and 8700 nM in test [2]. In addition, the “Ratio IC50” value in test [3] came out at 11.6.
In the case of `CNc1ccccc1-c1cc2c(cc1CO)OCO2`, the IC50 is more than 39000 nM in test [1] and more than 78000 nM in test [2].
With `CCCCCCCc1cc(=O)c2ccccc2[nH]1`, the IC50 in test [1] worked out at 1320 nM; in test [2] it was 35000 nM.
On to `C[C@@H]1CC[C@H]2[C@@H](C)C(=O)O[C@@H]3O[C@@]4(C)CC[C@@H]1[C@]32OO4` [ARTEMISININ], for which the IC50 in test [1] came out at 9 nM; in test [4], 5.9 nM.
Regarding `CC(=O)O[C@H]1C(=O)[C@@]2(C)[C@H]([C@H](OC(=O)c3ccccc3)[C@]3(O)C[C@H](OC(=O)[C@H](O)[C@@H](NC(=O)c4ccccc4)c4ccccc4)C(C)=C1C3(C)C)[C@]1(OC(C)=O)CO[C@@H]1C[C@@H]2O` [PACLITAXEL], in test [2], half-maximal inhibition (IC50) was put at 13.7 nM.
